In patent US20250283058A1, “USE OF p55-GAMMA GENE AND/OR p55-GAMMA PROTEIN AS TARGET IN MAINTAINING CARDIAC IRON HOMEOSTASIS AND TREATING RELATED DISEASE” (BEIJING FRIENDSHIP HOSPITAL, CAPITAL MEDICAL UNIVERSITY, priority 2024, published 2025):
Where a SMILES comes first, the peptide text is derived from it. The star is where a group is joined. Cbz = O=C(OCc1ccccc1)*

Tests used:
[1] = test system: IRP2; test: IRP2 mRNA and protein levels in cardiomyocytes (qPCR, Western blot); format: cell-based; settings: Ad-p55γ-infected cardiomyocytes treated with MG132
Experimental: To elucidate whether the p55γ gene could regulate the mRNA stability of Tfr1through the IRPs-IRE system, the expression of IRP2 in NRVMs was evaluated. Ad-p55γ was used to infect cardiomyocytes, and qPCR and Western blot were conducted to detect Ad-p55γ-infected cardiomyocytes for 48 h.
Ad-p55γ-infected cardiomyocytes were treated with MG132. […] In order to further study whether p55γ could promote the ubiquitination and degradation of IRP2, the target gene sequences of p55γ, IRP2, and UB were found in NCBI. A pcDNA3.1(+) vector was used, sequence analysis software was used to find the restriction endonuclease cleavage sites present in the target gene sequences, and plasmids for p55γ, IRP2, and […] were constructed. The plasmids were separately transfected into HEK293T cells, which were collected 24 h later and IRP2 ubiquitination was detected. Western blot was conducted to detect the ubiquitination level of IRP2.

[2] = test system: I/R injury-induced cardiac ferroptosis; test: I/R injury model in mice with ferroptosis inhibitors (TTC staining, serum LDH, MDA); format: in vivo; settings: for cardiac MDA content / serum LDH concentration: mice after I/R injury; for cardiac MDA content: compared with WT mice; for serum LDH concentration / I/R-induced myocardial infarct size: effect comparable to p55γ^h-TG mice; for I/R-induced myocardial infarct size: mice, TTC staining
Experimental: p55γ transgenic (p55γ^h-TG) mice were established according to routine methods in the art. Male wild-type (WT) C57 mice and p55γ^h-TG mice aged 8 to 12 weeks were selected to set up a sham operation control group and experimental groups, respectively, to construct I/R injury models. TTC staining, MDA detection, and oxidized lipid detection were conducted according to conventional methods in the art. To determine whether p55γ protein could inhibit I/R injury-induced cardiac ferroptosis, the experiments were carried out with the following groups: mice treated with saline, mice treated with Ferrostatin-1 (Fer-1) and Dexrazoxane (DXZ), and p55γ^h-TG mice. The cardiac infarction area of mice was detected by conventional TTC staining and the serum LDH concentration was assayed by LDH release kits. […] In addition, lipid peroxidation in the hearts of mice in each group was detected by intracellular MDA content assay. […] Given that the peroxidation of polyunsaturated fatty acids (PUFAs) is an important step in ferroptosis, and in order to further clarify the role of p55γ gene in ferroptosis, oxidized lipid substances in the hearts of mice from the […] group and WT-I/R group were measured using liquid chromatography-tandem mass spectrometry (LC-MS/MS).

[3] = test system: Tfr1 and IRP2; test: Western blot of Tfr1 and IRP2 after perhexiline treatment of cardiomyocytes; format: cell-based; settings: 24 h treatment
Experimental: (§1) In view of the importance of p55γ in combating ferroptosis, it is particularly important to find potential activators of p55γ for the treatment of I/R injury. Therefore, potential activators of p55γ were predicted using existing small molecule drug libraries. Subsequently, molecular docking analysis was conducted based on the crystal structure of p55γ. […] To determine the potential role of perhexiline in cardiomyocyte ferroptosis, experiments were first done in cardiomyocytes. […] The effect of perhexiline was further tested in the context of H/R injury model.

[4] = test system: cardiomyocytes (NRVMs); test: H/R injury model in cardiomyocytes with perhexiline; format: cell-based
Experimental: as §1

[5] = test system: I/R injury-induced cardiac ferroptosis; test: I/R injury model in mice pretreated with perhexiline (TTC staining, MDA); format: in vivo; settings: intraperitoneal injection 24 h and 2 h before I/R
Experimental: p55γ knockout (p55γ^−/−) mice were established according to routine methods in the art. Male wild-type (WT) C57 mice and p55γ^−/− mice aged 8 to 12 weeks were selected to set up a sham operation control group and experimental groups, respectively, and the mice were intraperitoneally injected with perhexiline 24 h and 2 h before constructing the I/R injury model. TTC staining and MDA detection were conducted according to conventional methods in the art.

[6] = test system: p55γ gene; test: p55γ gene mRNA and protein levels in cardiomyocytes treated with ferroptosis inducers (qPCR, Western blot); format: cell-based; settings: NRVMs treated with ferroptosis inducer vs vehicle group
Experimental: The cultured cardiomyocytes were divided into: an erastin group and a vehicle group, where the NRVMs were treated with erastin in the erastin group, while the cardiomyocytes in the vehicle group were not treated in any way. The mRNA and protein levels of p55γ gene in the two groups of cardiomyocytes were detected by conventional quantitative polymerase chain reaction (qPCR) and Western blot methods.
The mRNA and protein levels of p55γ gene in the two groups of cardiomyocytes were detected by conventional qPCR and Western blot methods.

[7] = cardiomyocytes, H/R injury model
[8] = with overexpression of IRP2 (IRP2 adenovirus)

CC(C)C[C@@H](C=O)NC(=O)[C@H](CC(C)C)NC(=O)[C@H](CC(C)C)NC(=O)OCc1ccccc1 [MG132] (Cbz-Leu-Leu-Leu-aldehyde)
p55γ-mediated decrease in IRP2 protein [1]: effectively eliminated

CCOC(=O)c1ccc(NC2CCCCC2)c(N)c1 [Fer-1, Ferrostatin-1]
cardiac MDA content [2]: significantly reduced
serum LDH concentration [2]: reduced
I/R-induced myocardial infarct size [2]: reduced

C1CCC(C(CC2CCCCN2)C2CCCCC2)CC1 (stereo not shown) [perhexiline]
protein level of IRP2 [3]: significantly down-regulated
protein level of Tfr1 [3]: significantly down-regulated
decrease in cell activity induced by H/R injury [4, 7]: significantly blocked
increase in ptgs2 mRNA levels induced by H/R injury [4, 7]: significantly blocked
inhibitory effect on H/R induced decrease in cell activity [4, 8]: could block the inhibitory effect
inhibitory effect on H/R induced increase in ptgs2 mRNA levels [4, 8]: could block the inhibitory effect
level of MDA in the heart ([5]; WT mice): reduce
myocardial infarct size ([5]; WT mice, TTC staining): significantly reduce
cardioprotective effect (level of MDA in the heart) ([5]; p55γ^−/− mice): abolished
cardioprotective effect (myocardial infarct size) ([5]; p55γ^−/− mice): abolished

C[C@@H](CN1CC(=O)NC(=O)C1)N1CC(=O)NC(=O)C1 [DXZ, Dexrazoxane]
cardiac MDA content [2]: significantly reduced
serum LDH concentration [2]: reduced
I/R-induced myocardial infarct size [2]: reduced

COC(=O)c1ccc([C@@H]2c3[nH]c4ccccc4c3C[C@@H](C(=O)OC)N2C(=O)CCl)cc1 [RSL3]
protein level of p55γ gene ([6]; Western blot): down-regulated
mRNA level of p55γ gene ([6]; qPCR): down-regulated
